{
  "source": "patent US8975234B2",
  "about": "“Anti-bacterial infection, inflammation, and leukemia composition and use thereof” (priority 2011, dated 2015)",
  "key": {"[1]": {"tested_on": "MSSA (Methicillin-susceptible Staphylococcus aureus)", "assay": "Minimum inhibitory concentration (broth microdilution) and FIC index", "assay_type": "cell-based", "experimental": "(§1) A serial of twofold dilution of the tested antibiotics (oxacillin, erythromycin, ampicillin, kanamycin, levofoxacin, vancomycin and doxycycline) was perform by Broth microdilution method to a final concentration of 2-512 μg/mL. The bacterial overnight culture was collected and re-suspended in the Muller-Hilton (M-H) broth. An aliquot of cell suspension (OD600=0.1) was prepared. The bacterial suspensions were plated in 96-well plate and incubated with test antibiotics at 37° C. in a 5% CO2 incubator (Table 1 to Table 4).\n(§2) The […], […] and antagonism between two drugs was evaluated by the following formula:\n(§3) [formula] The criteria of fractional inhibitory concentration index: […]"}, "MRSA 18271": {"tested_on": "MRSA 18271", "assay": "Minimum inhibitory concentration (broth microdilution) and FIC index", "assay_type": "cell-based, Staphylococcus aureus", "experimental": "as §1, §2, §3"}, "MRSA 18631": {"tested_on": "MRSA 18631", "assay": "Minimum inhibitory concentration (broth microdilution) and FIC index", "assay_type": "cell-based, Staphylococcus aureus", "experimental": "as §1, §2, §3"}, "MRSA 19615 [2]": {"tested_on": "MRSA 19615", "assay": "Minimum inhibitory concentration (broth microdilution) and FIC index", "assay_type": "cell-based, Staphylococcus aureus", "experimental": "as §1, §2, §3"}, "[3]": {"tested_on": "standard MRSA strain (ATCC 33591)", "assay": "Minimum inhibitory concentration (broth microdilution)", "assay_type": "cell-based, Staphylococcus aureus", "conditions": "Staphylococcus aureus, Table 1", "experimental": "as §1"}, "[4]": {"tested_on": "14 clinical isolated MRSA strains", "assay": "MIC and FIC index of oxacillin with Tellimagrandin II, clinical isolates", "assay_type": "cell-based", "conditions": "Staphylococcus aureus", "experimental": "14 clinical isolated MRSA strains were tested with oxacillin and Tellimagrandin II (40 μg/mL) and the FIC index was calculated.\nas §1, §2, §3"}, "[5]": {"tested_on": "Staphylococcus aureus (MSSA and MRSA strains)", "assay": "Synergy of antibiotics with Tellimagrandin II (text summary of Tables 1 to 4)", "assay_type": "cell-based", "conditions": "Table 2", "experimental": "as §1, §2, §3"}, "MRSA 19615 [6]": {"tested_on": "MRSA 19615", "assay": "Time-killing curve", "assay_type": "cell-based, Staphylococcus aureus", "conditions": "5 μg/mL alone", "experimental": "MRSA 19615 bacteria were cultured overnight, collected and re-suspended in 25 mL MHB containing TGII and antibiotics of the indicated final concentration. To dilute the samples, samples were taken from the suspension at indicated time interval and mixed with filtered PBS, followed by spreading the diluted sample on MHA plated for two plates/each time point. Colony counts between 150 and 500 colonies in first time point was used to determine the dilution fold. Time-killing curves were calculated from colony counting and data analyzing was performed after overnight culture. Bacterial time-kill curves were constructed by plotting mean colony counts (log10 cfu/mL) versus time (FIGS. 4 and 5)."}, "[7]": {"conditions": "Table 3, MSSA, Tellimagrandin II (40 μg/ml) +"}, "[8]": {"conditions": "Table 3, 18271, Tellimagrandin II (40 μg/ml) +"}, "[9]": {"conditions": "Table 3, 18631, Tellimagrandin II (40 μg/ml) +"}, "[10]": {"conditions": "Table 3, 19615, Tellimagrandin II (40 μg/ml) +"}},
  "note": "Where two headings read alike, the source gives them in different places.",
  "data": [
    {"smiles": "Cc1onc(-c2ccccc2)c1C(=O)N[C@@H]1C(=O)N2[C@@H]1SC(C)(C)[C@@H]2C(=O)O", "note": "[Oxacillin]", "values": [
      {"measurement": "MIC", "setting": "[1]; Staphylococcus aureus, MSSA, Table 1, MSSA, read-out: Minimum inhibitory concentration", "result": 4, "unit": "µg/mL"},
      {"measurement": "MIC", "setting": "[1]; Staphylococcus aureus, MSSA, Table 2, Non-drug resistant Staphylococcus aureus, with TG II 30 μg/mL, read-out: MIC", "result": "< 2", "unit": "µg/mL"},
      {"measurement": "MIC", "setting": "[1]; Staphylococcus aureus, MSSA, Table 2, Non-drug resistant Staphylococcus aureus, with TG II 40 μg/mL, read-out: MIC", "result": "< 2", "unit": "µg/mL"},
      {"measurement": "MIC", "setting": "[1]; Staphylococcus aureus, MSSA, Table 2, Non-drug resistant Staphylococcus aureus, without TG II, read-out: MIC", "result": 4, "unit": "µg/mL"},
      {"measurement": "MIC", "setting": "[1]; Staphylococcus aureus, MSSA, Table 3, MSSA, Tellimagrandin II (40 μg/ml) −, read-out: MIC", "result": 4, "unit": "µg/mL"},
      {"measurement": "FIC", "setting": "[1]; Table 2, Non-drug resistant Staphylococcus aureus, with TG II 30 μg/mL", "result": 0.5},
      {"measurement": "FIC", "setting": "[1]; Table 2, Non-drug resistant Staphylococcus aureus, with TG II 40 μg/mL", "result": 0.5},
      {"measurement": "FIC", "setting": "[1]; [7]", "result": 0.5},
      {"measurement": "MIC", "setting": "[1]; [7]", "result": 2, "unit": "µg/mL"},
      {"measurement": "MIC", "setting": "MRSA 18271; Staphylococcus aureus, MRSA, Table 1, MRSA 18271, read-out: Minimum inhibitory concentration", "result": "> 512", "unit": "µg/mL"},
      {"measurement": "MIC", "setting": "MRSA 18271; Staphylococcus aureus, MRSA, Table 2, 18271, with TG II 30 μg/mL, read-out: MIC", "result": 32, "unit": "µg/mL"},
      {"measurement": "MIC", "setting": "MRSA 18271; Staphylococcus aureus, MRSA, Table 2, 18271, with TG II 40 μg/mL, read-out: MIC", "result": 16, "unit": "µg/mL"},
      {"measurement": "MIC", "setting": "MRSA 18271; Staphylococcus aureus, MRSA, Table 2, 18271, without TG II, read-out: MIC", "result": 512, "unit": "µg/mL"},
      {"measurement": "MIC", "setting": "MRSA 18271; Staphylococcus aureus, MRSA, Table 3, 18271, Tellimagrandin II (40 μg/ml) −, read-out: MIC", "result": 512, "unit": "µg/mL"},
      {"measurement": "FIC", "setting": "MRSA 18271; Table 2, 18271, with TG II 30 μg/mL", "result": 0.0063},
      {"measurement": "FIC", "setting": "MRSA 18271; Table 2, 18271, with TG II 40 μg/mL", "result": 0.0031},
      {"measurement": "FIC", "setting": "MRSA 18271; [8]", "result": 0.031},
      {"measurement": "MIC", "setting": "MRSA 18271; [8]", "result": 16, "unit": "µg/mL"},
      {"measurement": "MIC", "setting": "MRSA 18631; Staphylococcus aureus, MRSA, Table 1, MRSA 18631, read-out: Minimum inhibitory concentration", "result": "> 512", "unit": "µg/mL"},
      {"measurement": "MIC", "setting": "MRSA 18631; Staphylococcus aureus, MRSA, Table 2, 18631, with TG II 30 μg/mL, read-out: MIC", "result": 64, "unit": "µg/mL"},
      {"measurement": "MIC", "setting": "MRSA 18631; Staphylococcus aureus, MRSA, Table 2, 18631, with TG II 40 μg/mL, read-out: MIC", "result": 8, "unit": "µg/mL"},
      {"measurement": "MIC", "setting": "MRSA 18631; Staphylococcus aureus, MRSA, Table 2, 18631, without TG II, read-out: MIC", "result": 512, "unit": "µg/mL"},
      {"measurement": "MIC", "setting": "MRSA 18631; Staphylococcus aureus, MRSA, Table 3, 18631, Tellimagrandin II (40 μg/ml) −, read-out: MIC", "result": 512, "unit": "µg/mL"},
      {"measurement": "FIC", "setting": "MRSA 18631; Table 2, 18631, with TG II 30 μg/mL", "result": 0.125},
      {"measurement": "FIC", "setting": "MRSA 18631; Table 2, 18631, with TG II 40 μg/mL", "result": 0.016},
      {"measurement": "FIC", "setting": "MRSA 18631; [9]", "result": 0.016},
      {"measurement": "MIC", "setting": "MRSA 18631; [9]", "result": 8, "unit": "µg/mL"},
      {"measurement": "MIC", "setting": "MRSA 19615 [2]; Staphylococcus aureus, MRSA, Table 1, MRSA 19615, read-out: Minimum inhibitory concentration", "result": 512, "unit": "µg/mL"},
      {"measurement": "MIC", "setting": "MRSA 19615 [2]; Staphylococcus aureus, MRSA, Table 2, 19615, with TG II 30 μg/mL, read-out: MIC", "result": "< 2", "unit": "µg/mL"},
      {"measurement": "MIC", "setting": "MRSA 19615 [2]; Staphylococcus aureus, MRSA, Table 2, 19615, with TG II 40 μg/mL, read-out: MIC", "result": 4, "unit": "µg/mL"},
      {"measurement": "MIC", "setting": "MRSA 19615 [2]; Staphylococcus aureus, MRSA, Table 2, 19615, without TG II, read-out: MIC", "result": 512, "unit": "µg/mL"},
      {"measurement": "MIC", "setting": "MRSA 19615 [2]; Staphylococcus aureus, MRSA, Table 3, 19615, Tellimagrandin II (40 μg/ml) −, read-out: MIC", "result": 512, "unit": "µg/mL"},
      {"measurement": "FIC", "setting": "MRSA 19615 [2]; Table 2, 19615, with TG II 30 μg/mL", "result": 0.004},
      {"measurement": "FIC", "setting": "MRSA 19615 [2]; Table 2, 19615, with TG II 40 μg/mL", "result": 0.008},
      {"measurement": "FIC", "setting": "MRSA 19615 [2]; [10]", "result": 0.008},
      {"measurement": "MIC", "setting": "MRSA 19615 [2]; [10]", "result": 4, "unit": "µg/mL"},
      {"measurement": "MIC", "setting": "[3]", "result": 512, "unit": "µg/mL"},
      {"measurement": "MIC", "setting": "[4]; MRSA 1, oxacillin alone", "result": 512, "unit": "µg/mL"},
      {"measurement": "MIC", "setting": "[4]; MRSA 2, oxacillin alone", "result": 512, "unit": "µg/mL"},
      {"measurement": "MIC", "setting": "[4]; MRSA 3, oxacillin alone", "result": 512, "unit": "µg/mL"},
      {"measurement": "MIC", "setting": "[4]; MRSA 4, oxacillin alone", "result": 512, "unit": "µg/mL"},
      {"measurement": "MIC", "setting": "[4]; MRSA 5, oxacillin alone", "result": 512, "unit": "µg/mL"},
      {"measurement": "MIC", "setting": "[4]; MRSA 6, oxacillin alone", "result": 256, "unit": "µg/mL"},
      {"measurement": "MIC", "setting": "[4]; MRSA 7, oxacillin alone", "result": 256, "unit": "µg/mL"},
      {"measurement": "MIC", "setting": "[4]; MRSA 8, oxacillin alone", "result": 128, "unit": "µg/mL"},
      {"measurement": "MIC", "setting": "[4]; MRSA 9, oxacillin alone", "result": 128, "unit": "µg/mL"},
      {"measurement": "MIC", "setting": "[4]; MRSA 10, oxacillin alone", "result": 64, "unit": "µg/mL"},
      {"measurement": "MIC", "setting": "[4]; MRSA 11, oxacillin alone", "result": 64, "unit": "µg/mL"},
      {"measurement": "MIC", "setting": "[4]; MRSA 12, oxacillin alone", "result": 64, "unit": "µg/mL"},
      {"measurement": "MIC", "setting": "[4]; MRSA 13, oxacillin alone", "result": 64, "unit": "µg/mL"},
      {"measurement": "MIC", "setting": "[4]; MRSA 14, oxacillin alone", "result": 32, "unit": "µg/mL"},
      {"measurement": "effect of antibiotic with Tellimagrandin II", "setting": "[5]", "result": "synergistic effect"},
      {"measurement": "bacterial growth, time-killing curve", "setting": "MRSA 19615 [6]", "result": "failed to inhibit bacterial growth"}
    ]}
  ]
}
